This passage reports Ki results from US8101766B2, “Crystalline form of a biphenyl compound” (Theravance, Inc., priority 2004, dated 2012).

Assay [1] addresses T1, human M2 muscarinic receptor (Homo sapiens, UniProt P08172).
T1 construct: expressed in transfected cells
T1 sequence (P08172 1-466): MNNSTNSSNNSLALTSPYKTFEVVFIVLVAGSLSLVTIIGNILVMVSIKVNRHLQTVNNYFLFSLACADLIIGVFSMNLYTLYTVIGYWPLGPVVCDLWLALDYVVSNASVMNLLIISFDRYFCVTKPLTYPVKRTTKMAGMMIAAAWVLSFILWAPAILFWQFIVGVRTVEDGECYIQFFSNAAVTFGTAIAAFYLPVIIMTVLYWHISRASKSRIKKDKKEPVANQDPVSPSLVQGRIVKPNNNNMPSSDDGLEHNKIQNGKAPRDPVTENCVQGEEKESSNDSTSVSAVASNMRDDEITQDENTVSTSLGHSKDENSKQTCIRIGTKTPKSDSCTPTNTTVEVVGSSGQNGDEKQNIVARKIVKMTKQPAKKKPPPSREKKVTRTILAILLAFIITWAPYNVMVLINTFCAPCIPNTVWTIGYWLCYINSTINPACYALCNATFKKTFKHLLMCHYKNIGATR
Description: Radioligand binding assay for muscarinic receptors (hM2). The following applies: [3H]-NMS displacement, CHO cell membranes. The protocol:
The cells were grown in a 5% CO2, 37° C. incubator and lifted with 2 mM EDTA in dPBS. Cells were collected by 5 minute centrifugation at 650×g, and cell pellets were either stored frozen at −80° C. or membranes were prepared immediately for use. For membrane preparation, cell pellets were resuspended in lysis buffer and homogenized with a Polytron PT-2100 tissue disrupter (Kinematica AG; 20 seconds×2 bursts). Crude membranes were centrifuged at 40,000×g for 15 minutes at 4° C. The membrane pellet was then resuspended with re-suspension buffer and homogenized again with the Polytron tissue disrupter. […] All membranes were stored frozen in aliquots at −80° C. or used immediately.
The membranes were briefly homogenized using a Polytron tissue disruptor (10 seconds) prior to assay plate addition. […] Filter plates were rinsed three times with wash buffer (10 mM HEPES) to remove unbound radioactivity. […] Binding data were analyzed by nonlinear regression analysis with the GraphPad Prism Software package (GraphPad Software, Inc., San Diego, Calif.) using the one-site competition model.

In assay [2] the target is T2, hM1 receptor (Homo sapiens, UniProt P11229).
T2 construct: expressed in transfected cells
T2 sequence (P11229 1-460): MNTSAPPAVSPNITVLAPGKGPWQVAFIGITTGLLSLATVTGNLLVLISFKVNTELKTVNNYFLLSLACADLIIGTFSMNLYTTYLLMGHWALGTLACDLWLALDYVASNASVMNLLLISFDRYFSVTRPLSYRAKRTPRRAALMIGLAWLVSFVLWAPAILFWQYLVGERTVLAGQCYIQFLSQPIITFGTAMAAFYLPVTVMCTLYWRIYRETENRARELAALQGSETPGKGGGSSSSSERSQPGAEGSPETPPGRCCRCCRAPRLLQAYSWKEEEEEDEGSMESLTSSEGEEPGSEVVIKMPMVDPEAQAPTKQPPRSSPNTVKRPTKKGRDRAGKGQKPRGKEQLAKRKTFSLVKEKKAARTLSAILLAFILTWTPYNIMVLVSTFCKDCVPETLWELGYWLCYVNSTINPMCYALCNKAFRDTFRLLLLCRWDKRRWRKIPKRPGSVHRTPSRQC
In words: Blockade of agonist-mediated calcium release via FLIPR assay (hM1). Type of assay: cell-based. The following applies: CHO cells stably expressing hM1. The source says: B. Blockade of Agonist-Mediated Calcium Release Via FLIPR Assays
Muscarinic receptor subtypes (M1, M3 and M5 receptors), which couple to Gq proteins, activate the phospholipase C (PLC) pathway upon agonist binding to the receptor. As a result, activated PLC hydrolyzes phosphatyl inositol diphosphate (PIP2) to diacylglycerol (DAG) and phosphatidyl-1,4,5-triphosphate (IP3), which in turn generates calcium release from intracellular stores, i.e., endoplasmic and sarcoplasmic reticulum. […] This fluorescence event is measured in real time by the FLIPR, which detects the change in fluorescence from a monolayer of cells cloned with human M1 and M3, and chimpanzee M5 receptors. Antagonist potency can be determined by the ability of antagonists to inhibit agonist-mediated increases in intracellular calcium. […]
To determine antagonist potency, the dose-dependent stimulation of intracellular Ca^2+ release for oxotremorine was first determined so that antagonist potency can later be measured against oxotremorine stimulation at an EC90 concentration. […]
The parameters used for the FLIPR were: exposure length of 0.4 seconds, laser strength of 0.5 watts, excitation wavelength of 488 nm, and emission wavelength of 550 nm. Baseline was determined by measuring the change in fluorescence for 10 seconds prior to addition of agonist. […]

What is called Ki is the dissociation constant of the complex between target and ligand, obtained from inhibition or displacement. Turning to `COc1cc(NC(=O)CCN2CCC(OC(=O)Nc3ccccc3-c3ccccc3)CC2)c(Cl)cc1CNC[C@H](O)c1ccc(O)c2[nH]c(=O)ccc12` [compound of formula I, biphenyl-2-ylcarbamic acid 1-[2-(2-chloro-4-{[(R)-2-hydroxy-2-(8-hydroxy-2-oxo-1,2-dihydroquinolin-5-yl)ethylamino]methyl}-5-methoxyphenylcarbamoyl)ethyl]piperidin-4-yl ester], the Ki in assay [1] and in assay [2] was below 10 nM in each case.
